The test system of experiment [1] is patients suffering from diabetic neuropathy. As to the kind of experiment: Phase 2A clinical trial, diabetic neuropathic pain. It is filed as in vivo, human. As to the method: In a Phase 2A clinical trial, patients suffering from diabetic neuropathy were administered 2-methoxyadenosine (2-MeOAd)) (7 mg 3 times per day) or a placebo over a four week period, and asked to rate their pain intensity (diabetic neuropathic pain) once per week based on an 11 point Likert Scale (0-10). The patients included some who were already being administered with a calcium channel blocker at a conventional therapeutic dose. The calcium channel blockers administered included Amlodipine (5-10 mg once per day), Verapamil, or Felodipine.
Patients in the clinical trial also completed the Short form McGill pain questionnaire (SF-MPQ) (Melzack, Pain, 1987, August; 30(2):191-7). The main component of the SF-MPQ consists of 15 descriptors (11 sensory; 4 affective) which are rated on an intensity scale as […], 1=mild, 2=moderate or 3=severe. Three pain scores are derived from the sum of the intensity rank values of the words chosen for sensory, affective and total descriptors. The SF-MPQ also includes the Present Pain Intensity (PPI) index of the standard MPQ and a visual analogue scale (VAS).

Experiment [2] deals with rat adjuvant model of arthritis. As to the kind of experiment: Rat adjuvant model of arthritis, analgesic relief. It is filed as in vivo.
The next experiment concerns the target adenosine A2A receptor (Homo sapiens, UniProt P29274). As to the kind of experiment: EC50 at the adenosine A2A receptor. It counts as biochemical. From the text: For the avoidance of doubt, the EC50 value of a compound is defined herein as the concentration of the compound that provokes a receptor response halfway between the baseline receptor response and the maximum receptor response (as determined, for example, using a dose-response curve).
The EC50 value should be determined under standard conditions (balanced salt solutions buffered to pH 7.4). For EC50 determinations using isolated membranes, cells and tissues this would be in buffered salt solution at pH 7.4 (e.g. cell culture medium), for example as in Daly et al., Pharmacol. (1993) 46, 91-100), or preferably as in Tilburg et al (J. Med. Chem. (2002) 45, 91-100). The EC50 could also be determined in vivo by measuring A2A adenosine receptor mediated responses in a normal healthy animal, or even in a tissue perfused under normal conditions (i.e. oxygenated blood, or oxygenated isotonic media, also buffered at pH 7.4) in a normal healthy animal.

The next experiment concerns the target A2A adenosine receptor (Homo sapiens, UniProt P29274). Conditions: pH below 7.4; cited from earlier work.
The mark [3] stands for this setting: patients also administered a calcium channel blocker.
Setting [4] is: with calcium channel blocker, P<0.02.

Chain of A2A adenosine receptor (P29274 whole entry): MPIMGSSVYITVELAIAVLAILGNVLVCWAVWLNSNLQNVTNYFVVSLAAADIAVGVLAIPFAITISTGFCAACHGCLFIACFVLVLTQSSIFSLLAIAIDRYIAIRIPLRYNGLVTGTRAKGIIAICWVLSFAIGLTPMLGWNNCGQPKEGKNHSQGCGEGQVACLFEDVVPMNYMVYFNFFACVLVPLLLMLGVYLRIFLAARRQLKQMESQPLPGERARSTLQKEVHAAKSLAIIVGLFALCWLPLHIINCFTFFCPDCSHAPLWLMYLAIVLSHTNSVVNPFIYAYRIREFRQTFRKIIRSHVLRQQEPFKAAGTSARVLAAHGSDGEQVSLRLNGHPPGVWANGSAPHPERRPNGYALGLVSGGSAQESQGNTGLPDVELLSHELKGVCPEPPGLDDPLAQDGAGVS
Chain of adenosine A2A receptor (P29274 whole entry): as above

Turning to `COc1nc(N)c2ncn([C@@H]3O[C@H](CO)[C@@H](O)[C@H]3O)c2n1` [2-methoxyadenosine], in experiment [1] (setting [3]), the “effect on 24-hour pain intensity compared with placebo” value is “significant effect”; the “responder rate, patients who experienced >30% pain relief” value amounted to 74%; the “responder rate, patients who experienced >50% pain relief” value is 43%. Moreover, in experiment [1] (patients also administered a calcium channel blocker, after 4 weeks, 7 mg 3 times per day, 11 point Likert Scale, P<0.01), the “median change from baseline in 24-hour pain intensity” value is “more than −2.5”. Further, the “effect on 24-hour pain intensity compared with placebo” value in experiment [1] (patients not also administered a calcium channel blocker) is listed as “no effect”. Also, in experiment [1] (whole patient population (with and without calcium channel blocker), Week 4, 7 mg 3 times per day, 11 point Likert Scale), the “median change from baseline in 24-hour pain intensity, difference below placebo” value stood at 0.7. Moreover, the “patient global impression of change (PGIC), 7 point scale” value in experiment [1] (with calcium channel blocker) is listed as “favourable effect”. For the same molecule, in experiment [1] (setting [4]), the “Clinical global impression of change (CGIC), 7 point scale” value is reported as “reduction” and the “pain rated by the VAS (SF-MPQ)” value was “reduction”. The “SF-MPQ total pain intensity score” value in experiment [1] (with calcium channel blocker, P<0.03) is given as “reduction”. The “present pain intensity (PPI, SF-MPQ)” value in experiment [1] (with calcium channel blocker, P<0.04) is reported as “reduction”. For the same molecule, in experiment [2], the “minimum plasma concentration giving maximal analgesic relief” value stood at 0.06 µM. The molecule also returned an EC50 on adenosine A2A receptor of about 1 µM. The “affinity for adenosine receptors at pH below pH 7.4” value at A2A adenosine receptor is reported as “increased affinity”.

These data come from US20120165285A1, “COMBINED PREPARATION FOR USE AS A MEDICAMENT” (priority 2009, published 2012).
